Assay results published in article PMC3873602, “Atheroprotective Vaccination with MHC-II Restricted Peptides from ApoB-100” (Frontiers in Immunology, 2013).
“Also recorded” adds a separate entry of the source. Where two headings read alike, the source gives them in different places. Each block holds one molecule with its values, some of them ahead of it. Ends that are not written are not given here.

Tests used:
H-2 I-A^b [1] = target: T1, H-2 I-A^b (Mus musculus, UniProt P14434+P14483); assay: I-A^b binding affinity, competitive inhibition assay with purified MHC and radio-labeled ligand
T1 sequence (P14434 24-256): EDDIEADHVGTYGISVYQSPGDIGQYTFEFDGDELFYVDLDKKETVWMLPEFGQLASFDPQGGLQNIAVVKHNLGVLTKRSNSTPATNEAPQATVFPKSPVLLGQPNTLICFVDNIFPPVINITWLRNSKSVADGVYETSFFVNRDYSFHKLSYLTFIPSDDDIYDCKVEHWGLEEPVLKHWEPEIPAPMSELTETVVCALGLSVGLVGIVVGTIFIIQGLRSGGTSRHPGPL
T1 sequence (P14483 28-265): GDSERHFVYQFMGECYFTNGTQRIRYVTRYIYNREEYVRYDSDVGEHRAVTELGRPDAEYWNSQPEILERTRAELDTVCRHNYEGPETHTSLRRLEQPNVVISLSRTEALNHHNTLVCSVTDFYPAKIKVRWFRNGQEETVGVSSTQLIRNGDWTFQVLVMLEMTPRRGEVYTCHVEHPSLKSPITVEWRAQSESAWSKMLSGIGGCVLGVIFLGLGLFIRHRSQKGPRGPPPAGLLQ
Method: We measured I-A^b binding affinity using a classical competitive inhibition assay utilizing purified MHC and high affinity radio-labeled I-A^b ligands ([39]). Their ability to displace the radio-labeled I-A^b ligand was measured, and an inhibitory concentration required to displace 50% of the radio-labeled ligand (IC50) was determined.
A peptide can only be recognized by a CD4^+ helper T-cell if it is bound to MHC class II. Because Apoe^−/− mice are on a C57B/6 background, candidate epitopes must be able to bind to the Class II allele, I-A^b. Previously, it has been shown that I-A^b binding motifs can be predicted using algorithms based on the number of anchor residues and hydrophobicity ([36]–[38]). […] The binding affinity is reflected by the amount of peptide, in […], needed to inhibit binding of a standardized radio-labeled peptide by 50% (the IC50) ([39]).

H-2 I-A^b [2] = target: T1, H-2 I-A^b; conditions: known T-cell epitope for comparison; cited from earlier work
Excerpt: Because Apoe^−/− mice are on a C57B/6 background, candidate epitopes must be able to bind to the Class II allele, I-A^b. Previously, it has been shown that I-A^b binding motifs can be predicted using algorithms based on the number of anchor residues and hydrophobicity ([36]–[38]).

mice = conditions: human ApoB-100 B-cell epitope; cited from earlier work
Excerpt: Several studies have reported a protective effect of vaccination with LDL, or ox-LDL, on the development of atherosclerotic plaque ([23]–[25]). However, the mechanism by which these immunizations convey atheroprotection is an ongoing area of research. […] This was initially a promising hypothesis which subsequently led to the search for atheroprotective B-cell (antibody) epitopes. The discovery of such epitopes was first reported by ...

I-Ab = I-Ab (Mus musculus, UniProt P14434+P14483); conditions: MHC Class II allele of Apoe^−/− and LDL-R^−/− mice; cited from earlier work
Excerpt: More recently, researchers have sought to describe the changes in cellular (rather than humoral) immunity that may result from immunization with B-cell epitopes from ApoB-100. Several recent papers have reported an increase in FoxP3^+ expressing TREGS in secondary lymphoid organs [spleens ([32]) and lymph nodes ([33])] after immunization of mice with P210. […] It is not known whether these TREGS are causally related to the atheroprotection that is observed.

Apoe^−/− mice [3] = assay: Antibody titers in plasma by chemiluminescent enzyme immunoassay; format: in vivo, mouse; conditions: pooled plasma, chemiluminescent ELISA, 1:250 dilution
Method: Antibody titers in plasma were determined by chemiluminescent enzyme immunoassay as previously described ([41]). In brief, white “U” bottom plates (Thermo Lab systems, USA) were coated with various antigens at 5 μg/mL in PBS for overnight incubation. Following blocking with 1% BSA-TBS serum was added in increasing dilutions and incubated at RT for 90 min. Bound antibodies levels were detected using appropriate alkaline phosphatase-conjugated secondary antibodies and a 50% aqueous solution of LumiPhos 530 (Lumigen, USA). Data are expressed as relative light units counted per 100 ms (RLU/100 ms).

Apoe^−/− mice [4] = assay: Aortic root plaque quantification (Oil Red O) after 1× CFA + 4× IFA immunization; format: in vivo, mouse; conditions: female Apoe^−/− mice, 1× CFA + 4× IFA scheme, WD 13 weeks; vs adjuvant-only mice; N = 5
Excerpt: Eight-week-old female Apoe^−/− mice on C57BL/6 background were purchased from Jackson Laboratories (Bar Harbor, ME, USA). Mice were housed in a specific pathogen free environment and fed chow diet until 10 weeks of age. At 10 weeks of age, mice were started on WD (adjusted calories diet with 42% from fat, Harlan Labs Cat #: TD.88137, CA, USA) and remained on WD until sacrifice at 23 weeks old.
Aortic root sections were examined as follows. Hearts were harvested, placed in Optimal Cutting Temperature medium (OCT, Electron Microscopy Sciences, Hatfield, PA, USA), and frozen at −80°C. Beginning at the first appearance of the tri-leaflet aortic valve, successive 5 μm transverse sections were made for a distance of 100 μm. From these, we analyzed every other section, for a total of 10 sections per root. Sections were then stained with Oil Red O and counter-stained with hematoxylin. Extent of atherosclerosis was then determined as the area involved on each section. To measure en face lesion formation, the whole aorta was carefully cleaned in situ and then the whole aorta pinned out after paraformaldehyde incubation at RT for at least 2 h. Staining for atherosclerotic plaque was performed by incubating samples in Sudan IV. Quantification was performed using ImagePro software (Media Cybernetics, Rockville, MD, USA). […]

H-2 I-A^b (mouse) = assay: radioligand binding; competitive inhibition assay: peptides displace a high affinity radio-labeled I-A^b ligand from purified MHC; (label) < (MHC) and IC50 ≥ (MHC), so that IC50 values approximate the true Kd
[5] = Table 2, ApoB3501–3516- and ApoB978–993-related overlapping peptides, read-out: H-2 I-Ab (IC50 nM)
[6] = Table 1, displacement of 50% of radio-labeled I-A^b ligand, purified MHC, IC50 approximates Kd

IC50 (H-2 I-A^b [1]; [5]): 172 nM
Molecule: CC(C)C[C@H](NC(=O)[C@H](Cc1ccc(O)cc1)NC(=O)[C@@H](NC(=O)[C@H](CC(N)=O)NC(=O)[C@H](C)NC(=O)[C@H](CCC(=O)O)NC(=O)[C@H](CC(N)=O)NC(=O)[C@H](C)NC(=O)[C@@H](NC(=O)[C@H](CO)NC(=O)CNC(=O)[C@@H](N)CO)C(C)C)C(C)C)C(=O)N[C@@H](CC(N)=O)C(=O)N[C@@H](CO)C(=O)N[C@@H](CCCCN)C(=O)NCC(=O)O

IC50 (H-2 I-A^b [1]; [6]): 1370 nM
Molecule: CC(C)C[C@H](NC(=O)[C@H](C)NC(=O)[C@H](Cc1ccc(O)cc1)NC(=O)[C@H](CC(C)C)NC(=O)[C@@H](NC(=O)[C@H](C)NC(=O)[C@H](CCCNC(=N)N)NC(=O)[C@@H](N)CO)[C@@H](C)O)C(=O)N[C@@H](CO)C(=O)N[C@@H](Cc1c[nH]cn1)C(=O)N[C@@H](C)C(=O)N[C@H](C(=O)N[C@@H](CC(N)=O)C(=O)N[C@@H](CO)C(=O)N[C@@H](Cc1ccc(O)cc1)C(=O)O)C(C)C

IC50 (H-2 I-A^b [1]; [5]): 6.8 nM
Molecule: CC(C)C[C@H](NC(=O)[C@H](Cc1ccccc1)NC(=O)[C@H](CO)NC(=O)[C@@H](N)CO)C(=O)N[C@@H](CO)C(=O)N[C@@H](CCC(N)=O)C(=O)N[C@@H](CCC(=O)O)C(=O)N[C@@H](Cc1ccc(O)cc1)C(=O)N[C@@H](CO)C(=O)NCC(=O)N[C@@H](CO)C(=O)N[C@H](C(=O)N[C@@H](C)C(=O)N[C@@H](CC(N)=O)C(=O)N[C@@H](CCC(=O)O)C(=O)N[C@@H](C)C(=O)O)C(C)C

IC50 (H-2 I-A^b [1]; [5]): 17 nM
Molecule: C[C@H](NC(=O)CNC(=O)[C@@H](NC(=O)[C@@H](N)[C@@H](C)O)[C@@H](C)O)C(=O)N[C@@H](Cc1ccc(O)cc1)C(=O)N[C@@H](CO)C(=O)N[C@@H](CC(N)=O)C(=O)N[C@@H](C)C(=O)N[C@@H](CO)C(=O)N[C@@H](CO)C(=O)N[C@H](C(=O)N[C@@H](CCC(=O)O)C(=O)N[C@@H](CO)C(=O)N[C@@H](C)C(=O)N[C@@H](CO)C(=O)N[C@@H](Cc1ccc(O)cc1)C(=O)O)[C@@H](C)O

Molecule: GWYRSPFSRVVHLY [MOG38–51]
IC50 (H-2 I-A^b [2]): 354 nM

IC50 (H-2 I-A^b [1]; [6]): 22200 nM
Molecule: HLEYVSSELRKSLQV

Molecule: IALDDAKINFNEKLSQLQTY [Peptide P143]
atheroprotection after vaccination of mice (mice): 40–60%

Molecule: KTTKQSFDLSVKAQYKKNKH [Peptide P210]
binding to I-Ab (I-Ab): does not bind; also recorded: not to bind to I-Ab
atheroprotection after vaccination of mice (mice): 40–60%

antibody titers to ApoB3501–3516 or ApoB978–993 in mice immunized with irrelevant peptide (Apoe^−/− mice [3]): no antibody titers
IgG (IgG1, IgG2c) response to the immunizing peptide (Apoe^−/− mice [3]; vs 1× CFA + 4× IFA group): predominantly IgG2c response
Molecule: MEVGWYRSPFSRVVHLYRNGK [MOG35–55, irrelevant control peptide, myelin oligodendrocyte glycoprotein 35–55]
reduction in aortic sinus (aortic root) plaque development, ORO staining (Apoe^−/− mice [4]): no significant decrease

IC50 (H-2 I-A^b [1]; [6]): 1300 nM
Molecule: NNYALFLSPRAQQAS

IC50 (H-2 I-A^b [1]; [5]): 907 nM
Molecule: NVYLNSKGTRSSVRLQ

IC50 (H-2 I-A^b [1]; [5]): 1170 nM
Molecule: SFTKGNIKSSFLSQEY

IC50 (H-2 I-A^b [1]; [5]): 1260 nM
Molecule: SSTESASYYPLTGDTR

Molecule: TRFKHLRKYTYNYEAESSS [Peptide P2]
atheroprotection after vaccination of mice (mice): 40–60%

H-2 I-A^b (IC50 nM) (H-2 I-A^b [1]; [6]): ∞
Molecule: YENFAASNKLDVTFS

IC50 (H-2 I-A^b (mouse)): 1170 nM
Molecule: SFTKGNIKSSFLSQEY [ApoB_(3501–3516)-related peptide, position 3489, 16 residues]

IC50 (H-2 I-A^b (mouse)): 1260 nM
Molecule: SSTESASYYPLTGDTR [ApoB_(978–993)-related peptide, position 985, 16 residues]

IC50 (H-2 I-A^b (mouse)): 17 nM
Molecule: TTGAYSNASSTESASY [ApoB_(978–993)-related peptide, position 977, 16 residues]

IC50 (H-2 I-A^b (mouse)): 907 nM
Molecule: NVYLNSKGTRSSVRLQ [ApoB_(3501–3516)-related peptide, position 3513, 16 residues]

IC50 (H-2 I-A^b (mouse)): 1300 nM
Molecule: NNYALFLSPRAQQAS [mouse ApoB-100 peptide 4505–4520]

IC50 (H-2 I-A^b (mouse)): 6.8 nM
Molecule: SSFLSQEYSGSVANEA [ApoB_(3501–3516)-related peptide, position 3497, 16 residues]

IC50 (H-2 I-A^b (mouse)): 1370 nM
Molecule: SRATLYALSHAVNSY [mouse ApoB-100 peptide 438–453]

IC50 (H-2 I-A^b (mouse)): 172 nM
Molecule: SGSVANEANVYLNSKG [ApoB_(3501–3516)-related peptide, position 3505, 16 residues]

IC50 (H-2 I-A^b (mouse)): 22200 nM
Molecule: HLEYVSSELRKSLQV [mouse ApoB-100 peptide 4054–4069]
